Measurements taken from patent US20210403864A1, “METHODS AND COMPOSITIONS FOR TREATING ACTIVATED G-ALPHA Q MUTANT CANCERS OR MELANOCYTIC MALIGNANCIES” (Memorial Sloan Kettering Cancer Center, priority 2018, published 2021).
Substitutions are numbered along the chain they refer to. Where two headings read alike, the source gives them in different places.

Assays:
[1] = system: CYSLTR2^L129Q; assay: IP1 accumulation assay in mutation dependent melan-a cells; type: cell-based, mouse; details: 24-hour treatment
Method: (§1) Cells were treated with increasing concentrations of YM-254890 (YM) for 3 hours (top) and 24 hours (bottom). Error bars, s.e.m. from three biological replicates, each with three technical replicates.
(§2) Cell Culture and in vitro analysis. Mutation dependent melan-a cells were generated by transducing cells with cDNAs in MSCV-PURO (retrovirus) and then selecting cells with puromycin (1 μg/ml) for two days. TPA (Sigma-Aldrich, St. Louis, Mo.) was then withdrawn from cultures. Cells with activating mutations (CYSLTR2^L129Q, GNAQ^G48V/R183Q/Q209L, KRAS^G12V, and BRAF^V600E) continued to proliferate over several passages (>2 weeks) and were then validated with qRT-PCR and immunoblots. Vector and WT controls were unable to maintain proliferation after a couple passages upon TPA withdrawal. All cells were cultured in media containing 10% FBS, L-glutamine ([…]), penicillin (100 U/ml), streptomycin (100 μg/ml). Melan-a cells provided by D. Bennett, St. George's Hospital, University of London (Johnson C P, et al., PLoS One. 12(6):1-17 (2017)), were cultured in RPMI supplemented with 200 nM TPA unless otherwise noted. HEK293T (from ATCC, Manassas, Va.) cells were cultured in DMEM-Q and UVM cells were cultured in RPMI. All cells tested negative for mycoplasma. Cell growth assays and YM dose response curves were assayed using CellTiter-glo 2.0 (Promega, Madison, Wis.) at given time points or after five days of incubation with YM and readout on a Glomax Luminometer (Promega, Madison, Wis.). IC50 values were calculated using Prism 7.0 software. Growth assays were compared to day 1 readings and dose response curves were compared to vehicle. Data shown is representative of at least three independent experiments with at least three technical replicates. Dose-response curves and growth assays were analyzed using GraphPad Prism 7.0 software.
(§3) IP1 Accumulation Assay. IP1 concentrations in GNAQ-transfected HEK293T cells, GNAQ-expressing melan-a cells and uveal melanoma cells was measured using a competitive homogenous time resolved fluorescence (HTRF) assay (CisBio, Bedford, Mass.). Briefly, 9,000 transiently transfected-HEK293T cells, 5,000 melan-a cells and 5,000 uveal melanoma cells were seeded in low-volume 384-well plates in 7 μL media for 24 hours prior YM-254890 treatment. Cells were then treated with various concentrations of YM-254890 diluted in the appropriate media at 37° C. for 3 hours or 24 hours. 1 h prior lysis, cells were supplemented with 1× Stimulation Buffer provided by the manufacturer (HEPES 10 mM, CaCl2) 1 mM, MgCl2 0.5 mM, KCl 4.2 mM, NaCl 146 mM, glucose 5.5 mM, LiCl 50 mM, pH 7.4) with 0.2% BSA and 50 mM of LiCl (to prevent IP1 degradation). Following incubation, cells were lysed by adding 3 μL/well of d2-labeled IP1 analogue as the fluorescence acceptor and the Terbium cryptate-labeled anti-IP1 mAb as the fluorescence donor, diluted in the kit-supplied lysis buffer. The plates were incubated overnight at RT and time-resolved fluorescence signals were read using the BioTek Synergy NEO plate reader (BioTek Instruments, Winooski, Vt.) at 620 nm and […]. Results were calculated as a 665 nm/620 nm signal ratio, and IP1 concentrations were interpolated from a standard curve prepared using the supplied IP1 calibrator. Results are shown as IP1 (nM). Dose-response curves and bar graphs were analyzed using GraphPad Prism 7.0 software.

[2] = target: T1, GNAQ^G48V (Homo sapiens, UniProt P50148, G48V); assay: as above; type: cell-based, mouse
T1 construct: host or cells: melan-a (immortalized mouse melanocytes), retroviral transduction with MSCV-Puro
T1 sequence (P50148 1-359 G48V): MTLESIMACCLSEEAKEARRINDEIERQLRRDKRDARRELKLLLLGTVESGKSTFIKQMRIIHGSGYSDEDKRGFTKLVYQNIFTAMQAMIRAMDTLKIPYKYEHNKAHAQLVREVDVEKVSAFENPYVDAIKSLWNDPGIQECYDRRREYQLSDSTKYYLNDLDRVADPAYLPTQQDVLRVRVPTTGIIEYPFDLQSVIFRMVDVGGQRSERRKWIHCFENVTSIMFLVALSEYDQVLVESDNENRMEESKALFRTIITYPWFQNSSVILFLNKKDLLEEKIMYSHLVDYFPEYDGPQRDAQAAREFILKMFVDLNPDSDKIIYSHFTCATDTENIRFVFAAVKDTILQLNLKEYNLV
Method: as §1, §2, §3

[3] = target: T2, GNAQ^Q209L (Homo sapiens, UniProt P50148, Q209L); assay: as above; type: cell-based, mouse
T2 construct: host or cells: melan-a (immortalized mouse melanocytes), retroviral transduction with MSCV-Puro
T2 sequence (P50148 1-359 Q209L): T1 sequence (P50148 1-359 G48V) with V48G, Q209L
Method: as §1, §2, §3

[4] = target: T3, GNAQ^R183Q (Homo sapiens, UniProt P50148, R183Q); assay: as above; type: cell-based, mouse
T3 construct: host or cells: melan-a (immortalized mouse melanocytes), retroviral transduction with MSCV-Puro
T3 sequence (P50148 1-359 R183Q): T1 sequence (P50148 1-359 G48V) with V48G, R183Q
Method: as §1, §2, §3

[5] = target: Gαq^Q209L (Homo sapiens, UniProt P50148, Q209L); details: overexpression systems, literature, cited from earlier work
Sequence of Gαq^Q209L (P50148 whole entry Q209L): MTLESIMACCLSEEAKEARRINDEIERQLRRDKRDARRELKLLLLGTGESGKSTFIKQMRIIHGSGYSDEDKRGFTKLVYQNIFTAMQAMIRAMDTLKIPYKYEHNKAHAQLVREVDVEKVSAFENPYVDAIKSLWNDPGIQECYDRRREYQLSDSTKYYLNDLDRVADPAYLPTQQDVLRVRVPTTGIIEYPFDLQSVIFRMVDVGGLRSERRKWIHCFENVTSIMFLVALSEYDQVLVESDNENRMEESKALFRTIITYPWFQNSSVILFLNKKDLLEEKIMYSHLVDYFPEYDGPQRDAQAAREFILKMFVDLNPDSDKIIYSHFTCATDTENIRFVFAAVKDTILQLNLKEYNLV

## YM-254890
[1]
  inhibition of IP1 accumulation: completely inhibited
  relative sensitivity to YM (IP1 accumulation): most sensitive
[2]; 24-hour treatment
  inhibition of IP1 accumulation: completely inhibited
  relative sensitivity to YM (IP1 accumulation): most sensitive
[2]; 3 hours of treatment
  sensitivity of IP1 accumulation after 3 hours versus 24 hours: less sensitive
[3]; 24-hour treatment
  fold less sensitive than CYSLTR2^L129Q and GNAQ^G48V mutants (IP1 accumulation): approximately 10 fold
  inhibition of IP1 accumulation: completely inhibited
[3]; 3 hours of treatment
  sensitivity of IP1 accumulation after 3 hours versus 24 hours: less sensitive
[3]; 3 hours of treatment, even at high doses of YM
  inhibition of IP1 accumulation: only partially inhibited
[4]; 24-hour treatment
  fold less sensitive than CYSLTR2^L129Q and GNAQ^G48V mutants (IP1 accumulation): approximately 10 fold
  inhibition of IP1 accumulation: completely inhibited
[4]; 3 hours of treatment
  sensitivity of IP1 accumulation after 3 hours versus 24 hours: less sensitive
[5]
  inhibition of aberrant Gαq signaling downstream of Gαq^Q209L: ineffective
[5]; listed as YM
  inhibition of aberrant Gαq signaling downstream of Gαq^Q209L: unable to inhibit
